Test results reported in PMC5011342, “A high throughput drug screening assay to identify compounds that promote oligodendrocyte differentiation using acutely dissociated and purified oligodendrocyte precursor cells” (BMC Research Notes, 2016).
Read-outs that look alike come from different tables or passages of the source.

Key:
[1] = tested on: acutely dissociated and purified rat OPCs; assay: Acute OL differentiation assay (MBP expression/cell, immunofluorescent image quantification); type: cell-based; details: sheet "All OLga data", relative to quetiapine; for activation at 2 µM / activation at 10 µM / activation at 0.4 µM / activation at 0.08 µM: Rattus norvegicus
How it was run: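 Oligodendrocyte precursor cells were enriched from P6-P7 Sprague–Dawley rat brains by immunopanning (RAN-2 and GalC depletion, O4 selection), plated at 5000 cells/well in serum-free, mitogen-free differentiation media on PDL/laminin 96-well view plates, centrifuged at 200×g, and pre-incubated 1–2 h before test compounds were added in quadruplicate. On DIV4, cells were fixed, stained for MBP and DAPI, imaged automatically, and MBP expression per cell was quantified.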

[2] = tested on: expanded OPCs; assay: cells; details: for viability at 0.1 µM / viability at 1 µM / viability at 10 µM: Rattus norvegicus, 72 h
How it was run: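 Expanded OPCs seeded at 10,000 cells/well in differentiation media, then exposed to NCC library compounds at 10, 1 and 0.1 µM (quadruplicate, 0.1% DMSO) for three days. Viability read as alamarBlue fluorescence (560/590 nm) after 4 h at 37 °C; tunicamycin 5 ng/ml served as toxicity control.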

[3] = test compound at 2 uM, NCC library screen, read-out: 2 uM (% Quet)
[4] = test compound at 10 uM, NCC library screen, read-out: 10 uM (% Quet)
[5] = read-out: 0.1 µM (% DMSO), alamarBlue viability, NCC library compound at 0.1 µM, sheet "All Tox data"
[6] = read-out: 1 µM (% DMSO), alamarBlue viability, NCC library compound at 1 µM, sheet "All Tox data"
[7] = read-out: 10 µM (% DMSO), alamarBlue viability, NCC library compound at 10 µM, sheet "All Tox data"
[8] = 0.4 uM test compound, read-out: OL differentiation, 0.4 uM (% Quet)
[9] = 2 uM test compound, read-out: OL differentiation, 2 uM (% Quet)
[10] = read-out: 0.1 µM (% DMSO), alamarBlue viability of expanded OPCs, compound at 0.1 µM, sheet All Tox data
[11] = read-out: 1 µM (% DMSO), alamarBlue viability of expanded OPCs, compound at 1 µM, sheet All Tox data
[12] = read-out: 10 µM (% DMSO), alamarBlue viability of expanded OPCs, compound at 10 µM, sheet All Tox data
[13] = test compound at 0.4 uM, NCC library screen, read-out: 0.4 uM (% Quet)
[14] = alamarBlue viability of expanded OPCs, compound at 0.1 µM, relative to DMSO control
[15] = alamarBlue viability of expanded OPCs, compound at 1 µM, relative to DMSO control
[16] = alamarBlue viability of expanded OPCs, compound at 10 µM, relative to DMSO control
[17] = test compound at 2 uM, NCC library screen
[18] = 10 uM test compound, read-out: OL differentiation, 10 uM (% Quet)

Row | SMILES | activation at 2 µM [1, 3] [%] | viability at 0.1 µM [2, 5] [%] | viability at 1 µM [2, 6] [%] | viability at 10 µM [2, 7] [%] | activation at 2 µM [1, 9] [%] | viability at 0.1 µM [2, 10] [%] | viability at 1 µM [2, 11] [%] | viability at 10 µM [2, 12] [%] | further results
1 | COc1cccc(C2(O)CCCCC2CN(C)C)c1 (stereo not drawn) [Tramadol] | -1.7 | 100 | 107 | 96.7 |  |  |  |  | activation at 10 µM [1, 4]: -9.7%
2 | CNCCCC12CCC(c3ccccc31)c1ccccc12 [Maprotiline] |  |  |  |  | -52.5 | 78.2 | 54.1 | 13.8 | activation at 0.4 µM [1, 8]: 15.2%
3 | CN1CCC(=C2c3ccccc3C=Cc3ccccc32)CC1 [Cyproheptadine] |  | 71.2 | 49.3 | 25.2 |  |  |  |  | activation at 0.08 µM ([1]; test compound at 0.08 uM, NCC library screen, read-out: 0.08 uM (% Quet)): -0.6%; activation at 0.4 µM [1, 13]: 10.3%
4 | CCOC(=O)CCC(=O)O[C@H]1[C@H](O[C@@H]2[C@@H](C)[C@H](O[C@H]3C[C@@](C)(OC)[C@@H](O)[C@H](C)O3)[C@@H](C)C(=O)O[C@H](CC)[C@@](C)(O)[C@H](O)[C@@H](C)C(=O)[C@H](C)C[C@@]2(C)O)O[C@H](C)C[C@@H]1N(C)C [Erythromycin Ethylsuccinate] | 1 |  |  |  |  |  |  |  | activation at 10 µM [1, 4]: 8.7%; 0.1 µM (% DMSO) [2, 14]: 95.4 % DMSO; 1 µM (% DMSO) [2, 15]: 87.4 % DMSO; 10 µM (% DMSO) [2, 16]: 75.9 % DMSO
5 | O=[N+]([O-])c1cccc2cn[nH]c12 [7-Nitroindazole] | -7.1 | 84.2 | 88.9 | 89.1 |  |  |  |  | activation at 10 µM [1, 4]: 5.7%
6 | O=C(O)c1cc2ccccc2c(Cc2c(O)c(C(=O)O)cc3ccccc23)c1O.OCCOCCN1CCN(C(c2ccccc2)c2ccc(Cl)cc2)CC1 [Hydroxyzine pamoate salt] |  |  |  |  |  |  |  |  | 2 uM (% Quet) [1, 17]: 106.0 % Quet; 10 uM (% Quet) ([1]; test compound at 10 uM, NCC library screen): 16.6 % Quet; 0.1 µM (% DMSO) [2, 14]: 223.4 % DMSO; 1 µM (% DMSO) [2, 15]: 190.1 % DMSO; 10 µM (% DMSO) [2, 16]: 134.2 % DMSO
7 | COc1ccc(-c2oc3c(CC=C(C)C)c(O[C@@H]4O[C@H](CO)[C@@H](O)[C@H](O)[C@H]4O)cc(O)c3c(=O)c2O[C@@H]2O[C@@H](C)[C@H](O)[C@@H](O)[C@H]2O)cc1 [Icariin] |  |  |  |  | 6.3 | 86.4 | 88.3 | 88.8 | activation at 10 µM [1, 18]: 9.8%
8 | CN1CC[C@]2(c3cccc(O)c3)Cc3nc4ccccc4cc3C[C@H]2C1 [SB 205607] |  |  |  |  |  |  |  |  | 0.4 uM (% Quet) ([1]; test compound at 0.4 uM, NCC library screen): 15.0 % Quet; 2 uM (% Quet) [1, 17]: 5.9 % Quet; 0.1 µM (% DMSO) ([2]; alamarBlue viability, NCC library compound at 0.1 µM, sheet "All Tox data"): 84.0 % DMSO; 1 µM (% DMSO) ([2]; alamarBlue viability, NCC library compound at 1 µM, sheet "All Tox data"): 78.4 % DMSO; 10 µM (% DMSO) ([2]; alamarBlue viability, NCC library compound at 10 µM, sheet "All Tox data"): 50.8 % DMSO
9 | Nc1ccn([C@@H]2O[C@H](CO)[C@@H](O)[C@@H]2O)c(=O)n1 [Cytarabine] |  |  |  |  | 5.8 | 60.2 | 56.2 | 43.1 | activation at 0.4 µM [1, 8]: -18.7%
10 | CC(C)(C)C(O)/C=C/c1ccc2c(c1)OCO2 (stereo not drawn) [Stiripentol] | -12 | 85.4 | 89.5 | 83.7 |  |  |  |  | activation at 10 µM [1, 4]: -14.2%
11 | CCN1CCC[C@H]1CNC(=O)c1c(O)c(Cl)cc(Cl)c1OC [Raclopride] |  |  |  |  | 12.4 | 93.2 | 92.8 | 89.9 | activation at 10 µM [1, 18]: 43.4%
12 | [H]/N=C(/NCCCCC)N/N=C/c1c[nH]c2ccc(OC)cc12 [Tegaserod] |  | 88.5 | 33.1 | 11.5 |  |  |  |  | activation at 0.08 µM ([1]; 0.08 uM test compound, read-out: OL differentiation, 0.08 uM (% Quet)): -15.2%; activation at 0.4 µM [1, 8]: -63.1%
13 | CN(C)CCC(c1ccc(Cl)cc1)c1ccccn1 (stereo not drawn) [Chlorpheniramine] | 7.6 | 86.5 | 77.7 | 46.7 | 10.5 |  |  |  | activation at 0.4 µM [1, 8]: 8.7%; activation at 0.4 µM [1, 13]: -6.7%
14 | COc1ccnc(C[S+]([O-])c2nc3ccc(OC(F)F)cc3[nH]2)c1OC (stereo not drawn) [Pantoprazole] |  |  |  |  | 8.8 | 94.1 | 91.1 | 95.2 | activation at 10 µM [1, 18]: -5.3%
